According to patent US10473666B2, “Dye compounds” (SFC CO., LTD., priority 2015, dated 2019):

What was measured:
[1] = Photophysical properties incl. two-photon cross-sections (femtosecond fluorescence measurement technique); assay type: physicochemical
Experimental: All measurements were performed in DMSO, ethanol, and PBS buffer. Two-photon cross-sections (δ) were measured using a femtosecond (fs) fluorescence measurement technique.

[2] = Characterization as pH probes: fluorescence intensity versus pH; assay type: physicochemical
From the text: In addition, the absorption and fluorescence wavelengths of the compound of Formula 97 well match currently available laser lines (488 nm, 532 nm, and 550 nm).
That is, the compound of Formula 111 as a pH probe emitted strong fluorescence at pH 2-6 and the compound of Formula 97 as a pH probe emitted strong fluorescence at pH 8-12.

[3] = Absorption spectra, emission spectra, molar extinction coefficients and quantum yields of the dye compounds; assay type: physicochemical; settings: Table 6
[4] = tested on: mitochondria, HeLa A431 cells; experiment: Selectivity for mitochondria: co-localization with MitoTracker Green FM in HeLa A431 cells; assay type: cell-based; settings: dye 0.5 μM
Experimental: The specific selectivity of the compound of Formula 97 for mitochondria was investigated. To this end, HeLa A431 cells were co-localized with the compound of Formula 97 and a commercially available mitochondrial marker (MTG, 0.2 μM MitoTracker Green FM for mitochondria).
OPM images were acquired at 571-650 nm (Formula 97, λex=552 nm) and 498-540 nm (MTG, λex=488 nm) and are shown in FIGS. 6a and 6b, respectively. FIG. 6c is a merged image of FIGS. 6a and 6b. The Pearson's co-localization coefficient (A) was calculated using the LAS AF software. [MTG]=0.2μM for 30 min incubation,λex=488 nm [Formula 97]=0.5μM for 30 min incubation,λex=552 nm

With `CC1(C)C2=C3C=C4C=CC(=O)C=C4OC3CCN2c2ccccc21` (stereo not drawn) [Formula 97] the “d: Peak two-photon cross-section” value ([1]; Buffer (PBS buffer)) was 35 10^−50 cm^4s per photon (GM), the dΦ: Two-photon action cross-section ([1]; Buffer (PBS buffer)) was 22 GM and the “Φ: Fluorescence quantum yield” value ([1]; Buffer (PBS buffer)) was 0.63. For the same compound, the “λ^(2)max^abs: Maximum wavelength in two-photon absorption spectrum” value ([1]; Buffer (PBS buffer)) was 920 nm, the “λmax^fl: Maximum wavelength in single-photon emission spectrum” value ([1]; Buffer (PBS buffer)) was 565 nm and the “eΦ: Molar extinction coefficient × fluorescence quantum yield” value ([1]; Buffer (PBS buffer), in M-1cm-1) was 8820. The “Φ: Fluorescence quantum yield” value ([1]; DMSO) was 0.94, the “λmax^fl: Maximum wavelength in single-photon emission spectrum” value ([1]; DMSO) was 567 nm and the dΦ: Two-photon action cross-section ([1]; EtOH) was 14 GM. For the same compound, the “λ^(2)max^abs: Maximum wavelength in two-photon absorption spectrum” value ([1]; EtOH) was 720 nm, the “pH at which the pH probe emitted strong fluorescence” value [2] was 8-12 pH and the “fluorescence intensity under acidic conditions” value ([2]; pH 1-6) was “decreased”. For the same compound, the “fluorescence intensity under basic conditions” value ([2]; pH 9-12) was “increased”, the Quantum yield ([3]; solvent DMSO) was 0.94 and the “ε (molar extinction coefficient)” value ([3]; solvent DMSO) was 35,000 M^−1cm^−1. It also gave a λabs ([3]; solvent DMSO) of 551 nm, a λem ([3]; solvent DMSO) of 568 nm and a Quantum yield ([3]; solvent EtOH) of 0.90. The “ε (molar extinction coefficient)” value ([3]; solvent EtOH) was 47,000 M^−1cm^−1, the λabs ([3]; solvent EtOH) was 555 nm and the λem ([3]; solvent EtOH) was 567 nm. The Quantum yield ([3]; solvent PBS) was 0.63, the “ε (molar extinction coefficient)” value ([3]; solvent PBS) was 14,000 M^−1cm^−1 and the λabs ([3]; solvent PBS) was 541 nm. The λem ([3]; solvent PBS) was 565 nm, the “staining selectivity for mitochondria” value [4] was “mitochondria were predominantly stained” and the “degree of overlapping (A), Pearson's co-localization coefficient with Mitotracker Green FM” value ([4]; MTG 0.2 μM, 30 min incubation, LAS AF software) was 0.74.
